Laboratory results: the NIST ThermoML archive (doi:10.1016/j.fluid.2010.10.028)

Assay: xn = mol fraction of the nth substance listed
Details: Liquid, Vibrating tube method

CC(C)=O [acetone] + CCCCCCC
Details | mass density [kg/m3]
367.5 K, 89850 kPa, x1 = 0.801 | 760.09
367.5 K, 89870 kPa, x1 = 0.492 | 727.6
367.5 K, 94840 kPa, x1 = 0.801 | 763.33
367.5 K, 94860 kPa, x1 = 0.492 | 730.65
367.5 K, 99820 kPa, x1 = 0.801 | 766.48
367.5 K, 104790 kPa, x1 = 0.801 | 769.51
367.5 K, 109770 kPa, x1 = 0.801 | 772.47
367.5 K, 114840 kPa, x1 = 0.801 | 775.42
367.5 K, 119830 kPa, x1 = 0.801 | 778.22
367.5 K, 124850 kPa, x1 = 0.801 | 780.96
367.5 K, 129850 kPa, x1 = 0.801 | 783.62
377.39 K, 1230 kPa, x1 = 0.611 | 632.91
377.39 K, 4860 kPa, x1 = 0.611 | 640.68
377.39 K, 9830 kPa, x1 = 0.7024 | 659.14
377.39 K, 9860 kPa, x1 = 0.611 | 650.09
377.39 K, 14860 kPa, x1 = 0.611 | 658.35
377.39 K, 39860 kPa, x1 = 0.611 | 690.09
377.39 K, 74880 kPa, x1 = 0.611 | 720.69
377.39 K, 84850 kPa, x1 = 0.611 | 727.78
377.39 K, 99800 kPa, x1 = 0.611 | 737.52
377.39 K, 119850 kPa, x1 = 0.611 | 749.19
377.39 K, 124860 kPa, x1 = 0.611 | 751.9
377.4 K, 1220 kPa, x1 = 0.492 | 624.83
377.4 K, 1220 kPa, x1 = 0.7024 | 641.88
377.4 K, 1230 kPa, x1 = 0.801 | 652.62
377.4 K, 4820 kPa, x1 = 0.7024 | 649.63
377.4 K, 4850 kPa, x1 = 0.801 | 660.44
377.4 K, 4860 kPa, x1 = 0.492 | 632.5
377.4 K, 9850 kPa, x1 = 0.492 | 641.73
377.4 K, 9860 kPa, x1 = 0.801 | 669.95
377.4 K, 14830 kPa, x1 = 0.7024 | 667.51
377.4 K, 14850 kPa, x1 = 0.801 | 678.33
377.4 K, 14860 kPa, x1 = 0.492 | 649.89
377.4 K, 19830 kPa, x1 = 0.7024 | 675.07
377.4 K, 19850 kPa, x1 = 0.492 | 657.2
377.4 K, 19850 kPa, x1 = 0.801 | 685.9
377.4 K, 19860 kPa, x1 = 0.611 | 665.8
377.4 K, 24840 kPa, x1 = 0.492 | 663.85
377.4 K, 24840 kPa, x1 = 0.7024 | 681.95
377.4 K, 24860 kPa, x1 = 0.611 | 672.6
377.4 K, 24870 kPa, x1 = 0.801 | 692.89
377.4 K, 29840 kPa, x1 = 0.7024 | 688.29
377.4 K, 29860 kPa, x1 = 0.611 | 678.86
377.4 K, 34830 kPa, x1 = 0.7024 | 694.18
377.4 K, 34840 kPa, x1 = 0.492 | 675.68
377.4 K, 34870 kPa, x1 = 0.611 | 684.68
377.4 K, 39820 kPa, x1 = 0.7024 | 699.65
377.4 K, 39850 kPa, x1 = 0.492 | 681.01
377.4 K, 44820 kPa, x1 = 0.7024 | 704.82
377.4 K, 44850 kPa, x1 = 0.611 | 695.17
377.4 K, 44870 kPa, x1 = 0.492 | 686.02
377.4 K, 49820 kPa, x1 = 0.7024 | 709.68
377.4 K, 49840 kPa, x1 = 0.492 | 690.72
377.4 K, 49850 kPa, x1 = 0.611 | 699.96
377.4 K, 54810 kPa, x1 = 0.7024 | 714.29
377.4 K, 54870 kPa, x1 = 0.801 | 725.65
377.4 K, 54930 kPa, x1 = 0.611 | 704.59
377.4 K, 59810 kPa, x1 = 0.7024 | 718.67
377.4 K, 59840 kPa, x1 = 0.492 | 699.41
377.4 K, 59850 kPa, x1 = 0.801 | 730.07
377.4 K, 59940 kPa, x1 = 0.611 | 708.91
377.4 K, 64790 kPa, x1 = 0.7024 | 722.84
377.4 K, 64830 kPa, x1 = 0.801 | 734.28
377.4 K, 64920 kPa, x1 = 0.611 | 713
377.4 K, 69890 kPa, x1 = 0.7024 | 726.94
377.4 K, 69900 kPa, x1 = 0.611 | 716.92
377.4 K, 69920 kPa, x1 = 0.492 | 707.37
377.4 K, 69930 kPa, x1 = 0.801 | 738.44
377.4 K, 74790 kPa, x1 = 0.4 | 757.14
377.4 K, 74790 kPa, x1 = 0.8992 | 757.14
377.4 K, 74870 kPa, x1 = 0.7024 | 730.75
377.4 K, 74920 kPa, x1 = 0.801 | 742.33
377.4 K, 79860 kPa, x1 = 0.7024 | 734.43
377.4 K, 79880 kPa, x1 = 0.611 | 724.31
377.4 K, 79890 kPa, x1 = 0.492 | 714.63
377.4 K, 79910 kPa, x1 = 0.801 | 746.08
377.4 K, 84840 kPa, x1 = 0.7024 | 737.97
377.4 K, 84870 kPa, x1 = 0.492 | 718.02
377.4 K, 84910 kPa, x1 = 0.801 | 749.68
377.4 K, 89820 kPa, x1 = 0.7024 | 741.37
377.4 K, 89840 kPa, x1 = 0.611 | 731.15
377.4 K, 89860 kPa, x1 = 0.492 | 721.32
377.4 K, 89880 kPa, x1 = 0.801 | 753.15
377.4 K, 94790 kPa, x1 = 0.7024 | 744.65
377.4 K, 94820 kPa, x1 = 0.611 | 734.38
377.4 K, 94830 kPa, x1 = 0.492 | 724.48
377.4 K, 94860 kPa, x1 = 0.801 | 756.48
377.4 K, 99780 kPa, x1 = 0.7024 | 747.85
377.4 K, 99820 kPa, x1 = 0.492 | 727.55
377.4 K, 99840 kPa, x1 = 0.801 | 759.75
377.4 K, 104750 kPa, x1 = 0.7024 | 750.93
377.4 K, 104780 kPa, x1 = 0.611 | 740.53
